This assay relates to γ-secretase (production of amyloid beta protein Aβ (1-42)). Put plainly: Cell-based γ-secretase assay with ELISA readout (Aβ (1-42) production). Details: species or system human WT-APP overexpressing CHO cells. As for the experimental part:
Cell-Based γ-Secretase Assay with ELISA Readout
The ability of compounds to modulate production of amyloid beta protein Aβ (1-42) was determined using human WT-APP overexpressing CHO cells. Cells were plated at 22,000 cells/100 μL well in 96 well tissue culture treated, clear plates (Falcon) in DMEM/F12 based medium and incubated for 24 hours at 37° C. Compounds for testing were diluted in 100% DMSO to achieve an eleven points, half log, dose response for IC50 determinations. Compounds were added in fresh medium to achieve 1% final DMSO. Appropriate vehicle and inhibitor controls were added to obtain maximum and minimum inhibition values for the assay before the plates were incubated for about 24 hours at 37° C.
Coating of ELISA assay plates was initiated by addition of 50 μL/well of an in-house Aβ (1-42) specific antibody at (4 μg/mL) in 0.1 M NaHCO3 (pH 9.0) into black 384-well Maxisorp® plates (Nunc) and incubated overnight at 4° C. The capture antibody was then aspirated from the ELISA assay plates and 100 μL/well of Blocking Buffer (Dulbecco's PBS, 1.5% BSA (Sigma A7030)) added. Ambient temperature incubation was allowed to proceed for a minimum of two hours before washing 2×100 μL with Wash Buffer (Dulbecco's PBS, 0.05% Tween 20). Assay Buffer (Dulbecco's PBS, 1.0% BSA (Sigma A7030), 0.05% Tween 20) 20 μL/well was then added.
After incubation overnight at 37° C., 5% CO2, 40 μL (in duplicate) of experimental conditioned media were transferred into wells of the blocked ELISA plates containing the capture antibody, followed by overnight incubation at 4° C. Cell toxicity was measured in the corresponding cells after removal of the media for the Aβ (1-42) assay by a colorimetric cell proliferation assay (CellTiter 96® AQueous One Solution Cell Proliferation Assay, Promega) according to the manufacturer's instructions.
After overnight incubation of the ELISA assay plates at 4° C., unbound Aβ peptides were removed thorough (4×100 μL) washes with Wash Buffer. Europium (Eu) labeled (custom labeled, Perkin Elmer) Aβ (1-16) 6e10 Monoclonal Antibody (Covance #SIG-39320 was added, (50 μL /well Eu-6e10 @ 1:5000, 20 uM EDTA) in Assay Buffer. Incubation at ambient temperature for a minimum of 2 hours was followed by (4×100 μL) washes with Wash Buffer, before 50 μL/well of Delfia Enhancement Solution (Perkin Elmer) was added. Following a one hour ambient temperature incubation, the plates were read on an EnVision plate reader (Perkin Elmer) using standard DELFIA TRF settings. Data analysis including inhibitory IC50 determination was performed using nonlinear regression fit analysis (in-house software) and the appropriate plate mean values for the maximum and minimum inhibition controls.
(In general: In an ELISA, binding on a coated surface is turned into a signal by an enzyme label.)

Setting [1] is: human WT-APP overexpressing CHO cells, Aβ (1-42) ELISA, about 24 hours at 37° C., free base or salt, read-out: Aβ 42B IC50 (μM) (Geometric Mean of 2-8 Determinations).
The mark [2] stands for this setting: Geometric mean of at least 2 determinations, Table 3, read-out: Aβ 42 IC50 (μM)*.

Structures are written as SMILES. Where two headings read alike, the source gives them in different places.

Regarding `COc1nc(C(=O)NCC(C)(C)c2ccc(F)cc2)ccc1-n1cnc(C)c1` [Example 29, N-[2-(4-fluorophenyl)-2-methylpropyl]-6-methoxy-5-(4-methyl-1H-imidazol-1-yl)pyridine-2-carboxamide], under setting [1], the IC50 (commonly the concentration at which inhibition is half-maximal) turned out to be 0.502 µM.

Turning to `COc1nc(C(=O)NCc2cccc(C(F)(F)F)c2)ccc1-n1cnc(C)c1` [Example 30, 6-methoxy-5-(4-methyl-1H-imidazol-1-yl)-N-[3-(trifluoromethyl)benzyl]-pyridine-2-carboxamide], the IC50 under setting [1] was determined as 0.502 µM.

As for `COc1nc(C(=O)NCc2ccc(OC(F)(F)F)cc2)ccc1-n1cnc(C)c1` [Example 31, 6-methoxy-5-(4-methyl-1H-imidazol-1-yl)-N-[4-(trifluoromethoxy)benzyl]-pyridine-2-carboxamide], the IC50 under setting [1] worked out at 1.01 µM.

As to `COc1nc(C(=O)NC(C)(C)c2ccc(F)cc2)ccc1-n1cnc(C)c1` [Example 32, N-[1-(4-fluorophenyl)-1-methylethyl]-6-methoxy-5-(4-methyl-1H-imidazol-1-yl)pyridine-2-carboxamide], the IC50 under setting [1] stood at 2.01 µM.

Regarding `COc1nc(C(=O)NCC2CCCC2)ccc1-n1cnc(C)c1` [Example 33, N-(cyclopentylmethyl)-6-methoxy-5-(4-methyl-1H-imidazol-1-yl)pyridine-2-carboxamide], the IC50 under setting [1] was determined as 0.726 µM.

For `Cc1cn(-c2ncc(C(=O)NCC3(c4ccc(Cl)cc4)CC3)cc2Cl)cn1` [Example 34, 5-chloro-N-{[1-(4-chlorophenyl)cyclopropyl]methyl}-6-(4-methyl-1H-imidazol-1-yl)nicotinamide], the IC50 under setting [1] was 1.37 µM.

For the molecule `Cc1cn(-c2ncc(C(=O)NCC3(c4ccc(F)cc4)CC3)cc2Cl)cn1` [Example 35, 5-chloro-N-{[1-(4-fluorophenyl)cyclopropyl]-methyl}-6-(4-methyl-1H-imidazol-1-yl)nicotinamide], under setting [1], the IC50 was 5.77 µM.

Consider `COc1nc(C(=O)N2CC[C@H](Oc3ccccc3C(F)(F)F)C2)ccc1-n1cnc(C)c1` [Example 36, 2-methoxy-3-(4-methyl-1H-imidazol-1-yl)-6-({(3S)-3-[2-(trifluoromethyl)-phenoxy]pyrrolidin-1-yl}carbonyl)pyridine], for which, under setting [1], the IC50 stood at 0.207 µM.

In the case of `COc1nc(C(=O)N2CC[C@@H](Oc3ccccc3C(F)(F)F)C2)ccc1-n1cnc(C)c1` [Example 37, 2-methoxy-3-(4-methyl-1H-imidazol-1-yl)-6-({(3R)-3-[2-(trifluoromethyl)-phenoxy]pyrrolidin-1-yl}carbonyl)pyridine], under setting [1], the IC50 amounted to 0.285 µM.

Turning to `COc1nc(C(=O)NCc2cc(C)ccc2C)ccc1-n1cnc(C)c1` [Example 38, N-(2,5-dimethylbenzyl)-6-methoxy-5-(4-methyl-1H-imidazol-1-yl)pyridine-2-carboxamide], the IC50 under setting [1] came to 0.667 µM.

Turning to `COc1nc(C(=O)N[C@@H]2CCc3ccc(Cl)cc32)ccc1-n1cnc(C)c1` [Example 39, N-[(1R)-6-chloro-2,3-dihydro-1H-inden-1-yl]-6-methoxy-5-(4-methyl-1H-imidazol-1-yl)pyridine-2-carboxamide], under setting [1], the IC50 came out at 1.34 µM.

Regarding `COc1nc(C(=O)N[C@H]2CCc3ccc(Cl)cc32)ccc1-n1cnc(C)c1` [Example 40, N-[(1S)-6-chloro-2,3-dihydro-1H-inden-1-yl]-6-methoxy-5-(4-methyl-1H-imidazol-1-yl)pyridine-2-carboxamide], under setting [1], the IC50 worked out at 0.259 µM.

Regarding `COc1nc(C(=O)NCc2cccc(Cl)c2C)ccc1-n1cnc(C)c1` [Example 41, N-(3-chloro-2-methylbenzyl)-6-methoxy-5-(4-methyl-1H-imidazol-1-yl)pyridine-2-carboxamide], under setting [1], the IC50 is 0.332 µM.

Take `COc1nc(C(=O)NCc2ccc(F)c(C3CC3)c2)ccc1-n1cnc(C)c1` [Example 42, N-(3-cyclopropyl-4-fluorobenzyl)-6-methoxy-5-(4-methyl-1H-imidazol-1-yl)pyridine-2-carboxamide]: the IC50 under setting [1] was 0.319 µM.

As to `COc1nc(C(=O)NCc2cc(Cl)cc(Cl)c2)ccc1-n1cnc(C)c1` [Example 43, N-(3,5-dichlorobenzyl)-6-methoxy-5-(4-methyl-1H-imidazol-1-yl)pyridine-2-carboxamide], the IC50 under setting [1] was determined as 0.216 µM.

For the molecule `COc1nc(C(=O)NCc2ccc(Cl)cc2Cl)ccc1-n1cnc(C)c1` [Example 44, N-(2,4-dichlorobenzyl)-6-methoxy-5-(4-methyl-1H-imidazol-1-yl)pyridine-2-carboxamide], the half-inhibitory concentration (IC50) under setting [1] is 0.394 µM.

With `COc1cc(C(=O)NCC2(c3ccc(F)cc3)CC2)cnc1-n1cnc(C)c1` [Example 45, N-{[1-(4-fluorophenyl)-cyclopropyl]methyl}-5-methoxy-6-(4-methyl-1H-imidazol-1-yl)nicotinamide], the IC50 under setting [1] came to 2.23 µM.

Turning to `COc1cc(C(=O)N2CC[C@@H](Oc3ccccc3C(F)(F)F)C2)cnc1-n1cnc(C)c1` [Example 46, 3-methoxy-2-(4-methyl-1H-imidazol-1-yl)-5-({(3R)-3-[2-(trifluoromethyl)-phenoxy]pyrrolidin-1-yl}carbonyl)pyridine], the IC50 under setting [1] was 2.3 µM.

Turning to `COc1cc(C(=O)N2CC[C@H](Oc3ccccc3C(F)(F)F)C2)cnc1-n1cnc(C)c1` [Example 47, 3-methoxy-2-(4-methyl-1H-imidazol-1-yl)-5-({(3S)-3-[2-(trifluoromethyl)-phenoxy]pyrrolidin-1-yl}carbonyl)pyridine], under setting [1], the IC50 came to 3.44 µM.

For the molecule `COc1nc(C(=O)N2CC(COc3cccc4ccccc34)C2)ccc1-n1cnc(C)c1` [Example 48, 2-methoxy-3-(4-methyl-1H-imidazol-1-yl)-6-({3-[(1-naphthyloxy)methyl]azetidin-1-yl}carbonyl) pyridine], the IC50 under setting [2] is 0.096 µM.

As to `COc1nc(C(=O)NC2COc3ccc(Cl)c(F)c32)ccc1-n1cnc(C)c1` (stereo not shown) [Example 49, N-[5-chloro-4-fluoro-2,3-dihydro-1-benzofuran-3-yl]-6-methoxy-5-(4-methyl-1H-imidazol-1-yl)pyridine-2-carboxamide], under setting [2], the IC50 came to 0.194 µM.

Regarding `COc1nc(C(=O)NC2COc3cc(C)c(Cl)cc32)ccc1-n1cnc(C)c1` (stereo not shown) [Example 50, N-[5-chloro-6-methyl-2,3-dihydro-1-benzofuran-3-yl]-6-methoxy-5-(4-methyl-1H-imidazol-1-yl)pyridine-2-carboxamide], the IC50 under setting [2] came to 0.2 µM.

Consider `COc1nc(C(=O)NC2COc3ccc(Cl)c(C)c32)ccc1-n1cnc(C)c1` (stereo not shown) [Example 51, N-(5-chloro-4-methyl-2,3-dihydro-1-benzofuran-3-yl)-6-methoxy-5-(4-methyl-1H-imidazol-1-yl)pyridine-2-carboxamide], for which the IC50 under setting [2] stood at 0.234 µM.

Consider `COc1nc(C(=O)NC2COc3c(C)cc(Cl)cc32)ccc1-n1cnc(C)c1` (stereo not shown) [Example 52, N-(5-chloro-7-methyl-2,3-dihydro-1-benzofuran-3-yl)-6-methoxy-5-(4-methyl-1H-imidazol-1-yl)pyridine-2-carboxamide], for which the IC50 under setting [2] was 0.364 µM.

For `COc1nc(C(=O)N[C@H]2COc3ccc(Cl)cc32)ccc1-n1cnc(C)c1` [Example 53, N-[(3R)-5-chloro-2,3-dihydro-1-benzofuran-3-yl]-6-methoxy-5-(4-methyl-1H-imidazol-1-yl)pyridine-2-carboxamide], under setting [2], the 50% inhibitory concentration (IC50) is 0.373 µM.

As for `COc1nc(C(=O)NC2COc3ccc(C(F)(F)F)c(F)c32)ccc1-n1cnc(C)c1` (stereo not shown) [Example 54, N-[4-fluoro-5-(trifluoromethyl)-2,3-dihydro-1-benzofuran-3-yl]-6-methoxy-5-(4-methyl-1H-imidazol-1-yl)pyridine-2-carboxamide], under setting [2], the IC50 worked out at 0.411 µM.

Consider `COc1nc(C(=O)NC2COc3cc(F)c(Cl)cc32)ccc1-n1cnc(C)c1` (stereo not shown) [Example 55, N-[5-chloro-6-fluoro-2,3-dihydro-1-benzofuran-3-yl]-6-methoxy-5-(4-methyl-1H-imidazol-1-yl)pyridine-2-carboxamide], for which the IC50 under setting [2] stood at 0.423 µM.

Regarding `COc1nc(C(=O)NC2COc3ccc(C(F)(F)F)cc32)ccc1-n1cnc(C)c1` (stereo not shown) [Example 56, 6-methoxy-5-(4-methy-1H-imidazol-1-yl)-N-[5-(trifluoromethyl)-2,3-dihydro-1-benzofuran-3-yl]pyridine-2-carboxamide], under setting [2], the IC50 was found to be 0.478 µM.

(Values after US20120202787A1, “Novel Heteroaryl Imidazoles And Heteroaryl Triazoles As Gamma-Secretase Modulators” (Pfizer Inc., priority 2009, published 2012).)
